Data taken from patent US8445522B2, “Substituted 2-(4-pyridyl)benzoxazoles, and compositions thereof, for use in arthropod pest control” (Sumitomo Chemical Company, Limited, priority 2009, dated 2013).

Legend:
Format in all cases: in vivo
rice brown planthopper [1] = assay: Test Example 5: test diluent scattered on rice plant seedling, rice brown planthopper released; details: Nilaparvata lugens, 144 h; 500 ppm, 10 ml scattered on rice plant seedling, 30 first-instars released, counted after six days at 25° C.; read-out: Control value
Procedure: The formulations were diluted with water so that the concentration of the active ingredient became 500 ppm and thus test diluents were prepared. On the other hand, to a rice plant seedling (two weeks after seeding, second leaf development stage) planted in a plastic cup, any one of the diluents (10 ml) was scattered. After the drug solution scattered on the rice plant was dried, 30 first-instars of rice brown planthopper were released on the rice plant, which was kept in the green house at 25° C. for six days. Thereafter, the number of rice brown planthopper parasitic on rice plant was counted and the control value was calculated by the following equation. Control value(%)={1−(Cb×Tai)/(Cai×Tb)}×100 wherein each character represents the following meaning: Cb: number of insects in non-treated section before treatment Cai: number of insects in non-treated section during observation Tb: number of insects in treated section before treatment Tai: number of insects in treated section during observation

rice brown planthopper [2] = assay: Test Example 6: plant foot irrigation of rice plant seedling, rice brown planthopper released after seven days; details: Nilaparvata lugens, 144 h; 500 ppm, 5 ml plant foot irrigation of rice seedling; first-instars released after seven days, counted six days after; read-out: Control value
Procedure: The formulations were diluted with water so that the concentration of the active ingredient became 500 ppm and thus test diluents were prepared. On the other hand, a plant foot of rice plant seedling (two weeks after seeding, second leaf development stage) planted in a plastic cup was irrigated with any one of diluents (5 ml). The seedling was kept in a green house of 25° C. for seven days. Thirty first-instars of rice brown planthopper were released to the seedling, which was kept in the green house at 25 C for six days. Thereafter, the number of survived rice brown planthopper parasitic on rice plant leaves was counted, and the control value was calculated by the following equation. Control value(%)={1−(Cb×Tai)/(Cai×Tb)}×100 wherein each character represents the following meaning: Cb: number of insects in non-treated section before treatment Cai: number of insects in non-treated section during observation Tb: number of insects in treated section before treatment Tai: number of insects in treated section during observation

cotton aphids [3] = assay: Test Example 3: plant foot irrigation of cucumber seedling in plastic cup, cotton aphids inoculated after seven days; details: 144 h; 500 ppm, 5 ml plant foot irrigation, plastic cup; aphids inoculated after seven days at 25° C., counted six days after; read-out: Control value
Procedure: (§1) The formulations were diluted with water so that the concentration of the active ingredient became 500 ppm and thus test diluents were prepared. On the other hand, a plant foot of cucumber seedling (second true leaf development stage) planted in a plastic cup was irrigated with any one of diluents (5 ml). The seedling was kept in a green house of 25° C. for seven days. The cucumber leaves were inoculated with 30 cotton aphids (all stages) and kept in the green house for further six days. Thereafter, the number of survived cotton aphids parasitic on the cucumber leaves was counted, and the control value was calculated by the following equation. Control value(%)={1−(Cb×Tai)/(Cai×Tb)}×100 wherein each character represents the following meaning: Cb: number of insects in non-treated section before treatment Cai: number of insects in non-treated section during observation Tb: number of insects in treated section before treatment Tai: number of insects in treated section during observation

tobacco whitefly = assay: Test Example 4: test diluent scattered on tomato seedling with hatched tobacco whitefly larvae; details: 168 h; 500 ppm, 10 ml/cup scattered on tomato seedling at larvae stage, counted after seven days at 25° C.; read-out: Control value
Procedure: The formulations were diluted with water so that the concentration of the active ingredient became 500 ppm and thus test diluents were prepared. On the other hand, by releasing tobacco whitefly imagos to a tomato seedling planted in a plastic cup to allow them to lay eggs for about 24 hours. The tomato seedling was kept in a green house for eight days. At the stage in which larvae hatched from the laid eggs, any of the test diluents was scattered at the rate of 10 ml/cup. The tomato seedling was kept in the greenhouse at 25° C. for seven days. The number of survived larvae on tomato leaves was counted, and the control value was calculated by the following equation. Control value(%)={1−(Cb×Tai)/(Cai×Tb)}×100 wherein each character represents the following meaning: Cb: number of insects in non-treated section before treatment Cai: number of insects in non-treated section during observation Tb: number of insects in treated section before treatment Tai: number of insects in treated section during observation

cotton aphids [4] = assay: Test Example 2: plant foot irrigation of cucumber seedling in urethane mat, cotton aphids inoculated one day after treatment; details: 168 h; 500 ppm, 5 ml plant foot irrigation, urethane mat; aphids inoculated one day after treatment, counted seven days after; read-out: Control value
Procedure: as §1, with “urethane mat” for “plastic cup”, “One day after the treatment, the” for “The seedling was kept in a green house of 25° C. for seven days. The”, “stages). Further seven days after,” for “stages) and kept in the green house for further six days. Thereafter,”

[5] = test system: cotton aphids (Aphis gossypii Glover); assay: Test Example 1: test diluent scattered on cucumber seedling inoculated with cotton aphids; details: 120 h, 500 ppm active ingredient, 10 ml scattered on cucumber seedling, counted five days after scattering, read-out: Control value
Procedure: The formulations were diluted with water so that the concentration of the active ingredient became 500 ppm and thus test diluents were prepared. On the other hand, a cucumber seedling (second true leaf development stage) planted in a plastic cup was inoculated with about 30 cotton aphids (Aphis gossypii Glover) and allowed to stand for one day. To the seedling, any one of the diluents (10 ml) was scattered. Five days after the scattering, the number of survived cotton aphids parasitic on the cucumber leaves was counted, and the control value was calculated by the following equation. Control value(%)={1−(Cb×Tai)/(Cai×Tb)}×100 wherein each character represents the following meaning: Cb: the number of insects in non-treated section before treatment Cai: the number of insects in non-treated section during observation Tb: the number of insects in treated section before treatment Tai: the number of insects in treated section during observation

Question: `FC(F)(F)c1cnc2oc(-c3ccncc3Cl)nc2c1` [Active Compound 139, 2-(3-chloropyridin-4-yl)-6-(trifluoromethyl)oxazolo[5,4-b]pyridine] was tested. Which pest or weed control at 500 ppm (rice brown planthopper [1]) did it give?
Answer: ≥ 90%

Question: And the pest or weed control at 500 ppm (rice brown planthopper [2])?
Answer: ≥ 90%

Question: Which pest or weed control at 500 ppm (cotton aphids [3]) does the source give for `FC(F)(F)c1cnc2oc(-c3ccncc3C(F)(F)F)nc2c1` [Active Compound 144, 6-trifluoromethyl-2-[3-(trifluoromethyl)pyridin-4-yl]-oxazolo[5,4-b]pyridine] here?
Answer: ≥ 90%

Question: How did the pest or weed control at 500 ppm (cotton aphids [3]) turn out when `COc1cnccc1-c1nc2cc(C(F)(F)F)cnc2o1` [Active Compound 145, 2-(3-methoxypyridin-4-yl)-6-(trifluoromethyl)oxazolo[5,4-b]pyridine] was run?
Answer: ≥ 90%

Question: For `CCCc1ccc2oc(-c3ccncc3)nc2c1` [active compound 1, 5-propyl-2-(pyridin-4-yl)-benzoxazole], which pest or weed control at 500 ppm (tobacco whitefly) is on record?
Answer: ≥ 90%

Question: What about the pest or weed control at 500 ppm (rice brown planthopper [1]) of the same compound?
Answer: ≥ 90%

Question: Which pest or weed control at 500 ppm (tobacco whitefly) does the source give for `CC(C)(C)c1ccc2nc(-c3ccncc3)oc2c1` [active compound 8, 6-tert-butyl-2-(pyridin-4-yl)-benzoxazole] here?
Answer: ≥ 90%

Question: And the pest or weed control at 500 ppm (rice brown planthopper [1])?
Answer: ≥ 90%

Question: For `[O-][n+]1ccc(-c2nc3cc(C(F)(F)F)ccc3o2)c(Cl)c1` [active compound 19, 3-chloro-4-[5-(trifluoromethyl)benzoxazole-2-yl]pyridine N-oxide], which pest or weed control at 500 ppm (cotton aphids [4]) is on record?
Answer: ≥ 90%

Question: And the pest or weed control at 500 ppm (cotton aphids [3])?
Answer: ≥ 90%

Question: How did the pest or weed control at 500 ppm (cotton aphids [3]) turn out when `Cc1c[n+]([O-])ccc1-c1nc2cc(C(F)(F)F)ccc2o1` [active compound 24, 3-methyl-4-[5-(trifluoromethyl)benzoxazole-2-yl]pyridine N-oxide] was run?
Answer: ≥ 90%

Question: What about the pest or weed control at 500 ppm (rice brown planthopper [2]) of the same compound?
Answer: ≥ 90%

Question: What does the source list for `Fc1cnccc1-c1nc2cc(C(F)(F)F)ccc2o1` [active compound 25, 2-(3-fluoropyridin-4-yl)-5-(trifluoromethyl)benzoxazole]?
Answer: pest or weed control at 500 ppm (cotton aphids [3]): ≥ 90%; pest or weed control at 500 ppm (rice brown planthopper [2]): ≥ 90%

Question: Which pest or weed control at 500 ppm (rice brown planthopper [1]) does the source give for `FC(F)(F)c1ccc2oc(-c3ccncc3-c3ccccc3)nc2c1` [active compound 32, 2-(3-phenylpyridin-4-yl)-5-(trifluoromethyl)benzoxazole] here?
Answer: ≥ 90%

Question: What does the source list for `C#Cc1cnccc1-c1nc2cc(C(F)(F)F)ccc2o1` [active compound 34, 2-(3-ethynylpyridin-4-yl)-5-(trifluoromethyl)benzoxazole]?
Answer: pest or weed control at 500 ppm [5]: ≥ 90%; pest or weed control at 500 ppm (tobacco whitefly): ≥ 90%; pest or weed control at 500 ppm (rice brown planthopper [1]): ≥ 90%

Question: Which pest or weed control at 500 ppm [5] does the source give for `FC(F)(F)CSc1cnccc1-c1nc2cc(C(F)(F)F)ccc2o1` [active compound 46, 2-[3-(2,2,2-trifluoroethylthio)pyridin-4-yl]-5-(trifluoromethyl)benzoxazole] here?
Answer: ≥ 90%

Question: And the pest or weed control at 500 ppm (tobacco whitefly)?
Answer: ≥ 90%

Question: What about the pest or weed control at 500 ppm (rice brown planthopper [1]) of the same compound?
Answer: ≥ 90%

Question: What about the pest or weed control at 500 ppm (rice brown planthopper [2]) of the same compound?
Answer: ≥ 90%

Question: For `Cc1cnn(-c2cnccc2-c2nc3cc(C(F)(F)F)ccc3o2)c1` [active compound 61, 2-[3-(4-methylpyrazole-1-yl)pyridin-4-yl]-5-(trifluoromethyl)benzoxazole], which pest or weed control at 500 ppm [5] is on record?
Answer: ≥ 90%

Question: What about the pest or weed control at 500 ppm (rice brown planthopper [1]) of the same compound?
Answer: ≥ 90%

Question: How did the pest or weed control at 500 ppm (rice brown planthopper [1]) turn out when `FC(F)(F)C(F)(c1ccc2oc(-c3ccncc3)nc2c1)C(F)(F)F` [active compound 67, 2-(pyridin-4-yl)-5-(heptafluoroisopropyl)benzoxazole] was run?
Answer: ≥ 90%

Question: For `COc1cnccc1-c1nc2cc3c(cc2o1)C(F)(F)OC3(F)F` [active compound 88, 5,5,7,7-tetrafluoro-2-(3-methoxypyridin-4-yl)-5,7-dihydro-furo[3′,4′:4,5]benzo[1,2-d]oxazole], which pest or weed control at 500 ppm [5] is on record?
Answer: ≥ 90%

Question: And the pest or weed control at 500 ppm (cotton aphids [4])?
Answer: ≥ 90%

Question: What about the pest or weed control at 500 ppm (tobacco whitefly) of the same compound?
Answer: ≥ 90%

Question: And the pest or weed control at 500 ppm (rice brown planthopper [1])?
Answer: ≥ 90%

Question: With `FC(F)(F)COc1cnccc1-c1nc2cc3c(cc2o1)C(F)(F)OC3(F)F` [active compound 89, 5,5,7,7-tetrafluoro-2-[3-(2,2,2-trifluoroethoxy)pyridin-4-yl]-5,7-dihydro-furo[3′,4′:4,5]benzo[1,2-d]oxazole] as the compound, how does the pest or weed control at 500 ppm [5] read?
Answer: ≥ 90%

Question: And the pest or weed control at 500 ppm (tobacco whitefly)?
Answer: ≥ 90%

Question: What about the pest or weed control at 500 ppm (rice brown planthopper [1]) of the same compound?
Answer: ≥ 90%

Question: What does the source list for `CC(C)Oc1cnccc1-c1nc2cc3c(cc2o1)C(F)(F)OC3(F)F` [active compound 97, 5,5,7,7-tetrafluoro-2-(3-isopropoxypyridin-4-yl)-5,7-dihydro-furo[3′,4′:4,5]benzo[1,2-d]oxazole]?
Answer: pest or weed control at 500 ppm [5]: ≥ 90%; pest or weed control at 500 ppm (tobacco whitefly): ≥ 90%; pest or weed control at 500 ppm (rice brown planthopper [1]): ≥ 90%; pest or weed control at 500 ppm (rice brown planthopper [2]): ≥ 90%

Question: How did the pest or weed control at 500 ppm [5] turn out when `CCc1cnccc1-c1nc2cc3c(cc2o1)C(F)(F)OC3(F)F` [active compound 98, 2-(3-ethylpyridin-4-yl)-5,5,7,7-tetrafluoro-5,7-dihydro-furo[3′,4′:4,5]benzo[1,2-d]oxazole] was run?
Answer: ≥ 90%

Question: What about the pest or weed control at 500 ppm (tobacco whitefly) of the same compound?
Answer: ≥ 90%

Question: And the pest or weed control at 500 ppm (rice brown planthopper [1])?
Answer: ≥ 90%

Question: And the pest or weed control at 500 ppm (rice brown planthopper [2])?
Answer: ≥ 90%

Question: `CC(C)(C)c1ccc2oc(-c3ccncc3C(F)(F)F)nc2c1` [active compound 107, 5-tert-butyl-2-(3-trifluoromethylpyridin-4-yl)benzoxazole] was tested. Which pest or weed control at 500 ppm (cotton aphids [4]) did it give?
Answer: ≥ 90%

Question: What about the pest or weed control at 500 ppm (tobacco whitefly) of the same compound?
Answer: ≥ 90%

Question: What about the pest or weed control at 500 ppm (rice brown planthopper [1]) of the same compound?
Answer: ≥ 90%

Question: And the pest or weed control at 500 ppm (rice brown planthopper [2])?
Answer: ≥ 90%

Question: Which results are given for `CCOCCOc1cnccc1-c1nc2cc(C(F)(F)F)ccc2o1` [active compound 122, 2-[3-(2-ethoxyethoxy)pyridin-4-yl]-5-(trifluoromethyl)benzoxazole]?
Answer: pest or weed control at 500 ppm [5]: ≥ 90%; pest or weed control at 500 ppm (tobacco whitefly): ≥ 90%; pest or weed control at 500 ppm (rice brown planthopper [1]): ≥ 90%

Question: Which results are given for `CCCCCOc1cnccc1-c1nc2cc(C(F)(F)F)ccc2o1` [active compound 123, 2-(3-pentyloxypyridin-4-yl)-5-(trifluoromethyl)benzoxazole]?
Answer: pest or weed control at 500 ppm (tobacco whitefly): ≥ 90%; pest or weed control at 500 ppm (rice brown planthopper [1]): ≥ 90%

Question: For `CS(=O)(=O)c1cnccc1-c1nc2cc(C(F)(F)F)ccc2o1` [active compound 135, 2-[3-(methanesulfonyl)pyridin-4-yl]-5-(trifluoromethyl)benzoxazole], which pest or weed control at 500 ppm (cotton aphids [3]) is on record?
Answer: ≥ 90%

Question: For `FC(F)(F)c1cnc2oc(-c3ccncc3)nc2c1` [active compound 138, 2-pyridin-4-yl-6-(trifluoromethyl)oxazolo[5,4-b]pyridine], which pest or weed control at 500 ppm (rice brown planthopper [1]) is on record?
Answer: ≥ 90%
